From patent US20240246934A1, “QUINAZOLINE-BASED COMPOUND, COMPOSITION, AND APPLICATION OF QUINAZOLINE-BASED COMPOUND” (BEIJING SCITECH-MQ PHARMACEUTICALS LIMITED, priority 2021, published 2024) come the findings set out here.

Where two headings read alike, the source gives them in different places. Where only a bound is given, the exact number is not on record here.

Series [1] is described as follows: Pharmacokinetics in SD rats, single intravenous injection and oral administration. The series is classed as in vivo, SD rat. To be noted: for AUC(0-inf) / AUC(0-t) / Vd / half-life / bioavailability / Cmax / Tmax: SD, rat, whole blood; for bioavailability: PO 10 mg/kg vs IV 3 mg/kg, read-out: F % (bioavailability). The protocol:
In this assay, the pharmacokinetic characteristics of the compounds of the present application were assayed after administration of some of the compounds of the present application to SD rats by single oral administration and intravenous injection. 1. […] The mixture was stirred, vortexed and/or sonicated. Once a solution was obtained, the vehicle was gradually added to a final volume to reach the target concentration. The solution was vortexed, and sonicated to obtain a homogeneous solution. The solution was filtered through a 0.22 μm PVDF membrane. 2. […] The mixture was stirred, vortexed and/or sonicated. Once a solution was obtained, the vehicle was gradually added to a final volume to reach the target concentration. The solution was vortexed, and sonicated to obtain a homogeneous solution. […] Meanwhile, the IV group was not fasted and the PO group was fasted overnight (>12 hrs) and given food 2 hrs after drug administration. All animals had free access to water. The dosing regimen and pharmacokinetic sampling regimen are given in Table 6 and Table 7 below, respectively. […] Rats were administered according to the above regimen, and blood and brain tissue samples were collected and processed at predetermined time points (collection and processing were performed according to conventional methods in the art). […] The supernatant was diluted 2-fold with ultra-pure water, and the samples were analyzed by LC/MS. Pharmacokinetic parameters was calculated using WinNonlin software. The following pharmacokinetic parameters was calculated from the plasma drug concentration-time data: CL (clearance); Vd (apparent volume of distribution); T1/2 (elimination half-life time); Cmax (peak concentration); Tmax (time to peak); AUC (area under plasma drug concentration-time curve); MRT (mean retention time); F % (bioavailability).

Series [2] is described as follows: Brain tissue and whole blood concentration in SD rats after oral administration. It counts as in vivo. The following applies: rat, PO 10 mg/kg, 2 h after administration. As to the method: In this assay, the pharmacokinetic characteristics of the compounds of the present application were assayed after administration of some of the compounds of the present application to SD rats by single oral administration and intravenous injection.
2. […] The mixture was stirred, vortexed and/or sonicated. Once a solution was obtained, the vehicle was gradually added to a final volume to reach the target concentration. The solution was vortexed, and sonicated to obtain a homogeneous solution.
Meanwhile, the IV group was not fasted and the PO group was fasted overnight (>12 hrs) and given food 2 hrs after drug administration. All animals had free access to water. The dosing regimen and pharmacokinetic sampling regimen are given in Table 6 and Table 7 below, respectively.
Rats were administered according to the above regimen, and blood and brain tissue samples were collected and processed at predetermined time points (collection and processing were performed according to conventional methods in the art).
The supernatant was diluted 2-fold with ultra-pure water, and the samples were analyzed by LC/MS.
Brain tissues were weighed and homogenized by adding 4-fold homogenizing solution (acetonitrile/water=1/1 v/v). […] The supernatant was diluted 2-fold with ultra-pure water, and the samples were analyzed by LC/MS.

Series [3] has as its target EGFR^WT kinase (Homo sapiens, UniProt P00533). The series can be described thus: EGFR^WT kinase assay (ULight/PT66 TR-FRET). It counts as biochemical. As to the method:
(§1) Preparation of compound solution: The assay compound was dissolved in DMSO to form a 10 mM stock solution. Prior to use, the compound was diluted to 0.25 mM in DMSO (100 times the final concentration of the diluent) and then subjected to a 3-fold concentration gradient dilution to obtain a total of 11 concentrations. The solution was diluted with buffer to a diluent with 4× the final concentration when the compound was added.
(§2) EGFR^WT kinase assay: buffer was prepared, and 3.48 nM 4×EGFR kinase solution, 600 μM 4×ATP solution, and 400 nM 4×ULight™-labeled JAK-1 (Try1023) Peptide substrate solution were prepared using the buffer. After the preparation was completed, the enzyme was mixed with different concentrations of compounds pre-prepared by dilution, and the mixture was left to stand at room temperature for 5 min. Each concentration was performed in duplicate. The corresponding substrate and ATP were added and the mixture was reacted at room temperature for 120 minutes (with negative and positive controls). After completion of the reaction, PT66 detection antibody was added. The mixture was incubated at room temperature for 60 minutes, and then detected by Envision.
(§3) Compound concentrations and corresponding inhibition rates were input into GraphPad Prism for processing to calculate IC50 values.

The target in series [4] is T1, HER2 kinase (Homo sapiens, UniProt P04626).
T1 construct: purchased Carna Biosciences 08-016
The series can be described thus: HER2 kinase assay (ULight/PT66 TR-FRET). It counts as biochemical. The protocol: as §1
as §2, with “HER2” for “EGFR^WT”, “40” for “3.48”, “4×Her2” for “4×EGFR”, “40” for “600”, “Ploy GT” for “JAK-1 (Try1023)”
as §3

Series [5] concerns the target Ba/F3 HER2 A775_G776insYVMA cells (Homo sapiens, UniProt P04626, DUP772-775, cells depend on it). Description: Inhibition of cell proliferation, CTG method, Ba/F3 HER2 A775_G776insYVMA. The series is classed as cell-based. The following applies: 72 hours, read-out: Ba/F3 HER2 A775-G776insYVMA IC50. From the text: The present application examined the in vitro anti-proliferative activity of the compounds of the present disclosure against in vitro cultured BT474, NCI-N87, Ba/F3-EGFR-VIII and Ba/F3 HER2 A775_G776insYVMA and Ba/F3 EGFR D770_N771insSVD cell lines by CTG method.
Cell lines: BT474 (from the cell bank of Chinese Academy of Sciences), NCI-N87 (from ATCC), Ba/F3-EGFR-VIII, Ba/F3 HER2 A775_G776insYVMA and Ba/F3 EGFR D770_N771insSVD (all from KYinno Biotechnology (Beijing) Co., Ltd.); all of the above cells were cultured with RPMI1640 medium containing 10% fetal bovine serum, 100 U/mL penicillin, and 100 μg/mL streptomycin in the culture process.
1. The assay compound was dissolved with DMSO to form a stock solution and a gradient dilution was performed, followed by dilution with the corresponding medium to obtain a solution with 5-fold working concentration.
2. Cells in logarithmic growth phase were adjusted to specific cell densities by dilution with culture medium, and 80 μL of cell suspension was added to a 96-well plate, such that plating densities of cells of BT474, NCI-N87, Ba/F3-EGFR-VIII, Ba/F3 HER2 A775_G776insYVMA and Ba/F3 EGFR D770_N771insSVD were all 3000 cells/well. The cells of Ba/F3-EGFR-VIII, Ba/F3 HER2 A775_G776insYVMA and Ba/F3 EGFR D770_N771insSVD were used directly in the next step (treatment with compound), whereas the BT474 and NCI-N87 needed to be cultured overnight in a 37° C., 5% carbon dioxide gas incubator to adhere to the wall, and then treated with compounds.
3. […] The highest concentration of the assayed compound was 10 μM, 4-fold serial dilution, a total of 9 concentrations, and duplicate wells. A control group without compound was also set up.
4. The cells were cultured for another 72 hours, and then cell viability was detected by CTG assay kit. Signal values were read with a multifunctional plate reader (Perkin Elmer). GraphPad Prism software was used to create a dose-response curve and IC50 was calculated.

Series [6] concerns Ba/F3 ERBB2 A775_G776insYVMA. The series can be described thus: Efficacy in nude mouse tumor-bearing model of Ba/F3 ERBB2 A775_G776insYVMA. The series is classed as in vivo, BALB/c nude mice. The following applies: 30 mg/kg. The protocol: In this assay, some compounds of the application were orally administered to a nude mouse tumor-bearing model of Ba/F3 ERBB2 A775_G776insYVMA to study the effect of the compounds of the application on tumor growth.
Preparation of the assay compound: an appropriate weight of the compound to be assayed was weighed, and completely dissolved in an appropriate volume of vehicle (DMSO). The mixture was vortexed or sonicated. Then an appropriate amount of Solutol was added and mixed well. Finally, sterilized drinking water was added and the mixture was mixed by stirring or vortexing to obtain a homogeneous solution or suspension.
Method: All the assays were authorized and agreed by the Animal Welfare Committee. Ba/F3 ERBB2 A775_G776insYVMA in a logarithmic growth period was inoculated subcutaneously into the right back of immunodeficient nude mice (BALB/c nude, female, 6-7 weeks of age, body weight 18±2 g) with 4×10^6 cells/rat. After the tumor grew to 150-200 mm^3, the animals were randomly divided into a treatment group and a control group. For the treatment group, a solution of each assay compound was given, and for the control group, a vehicle solution without the assay compound was given. Both of the treatment group and the control group were administered once a day for about 2 weeks. The dose of each assay article was 30 mg/kg (in terms of effective compound concentration), and the assay compounds were all prepared freshly for use. During the assay, the diameter of loaded tumors was measured twice a week, and the mice were weighed at the same time. The tumor volume (TV) was calculated by the formula: TV=½×a×b^2, where a and b denote length and width, respectively. Relative tumor volume (RTV) was calculated based on the measured results by the formula: RTV=Vt/V0, where V0 is the tumor volume measured at grouping and administration and Vt is the tumor volume at each measurement. The evaluation index of antitumor activity was the relative tumor proliferation rate T/C (%) calculated by the formula: T/C (%)=(TRTV/CRTV)×100%, TRTV: RTV of the administration group; CRTV: RTV of the control group. T and C denote the average tumor volume at a certain time point in the administration group and the control group, respectively.

[7] abbreviates: NA: Exposure was too low to be counted.
The mark [8] stands for this setting: PO 10 mg/kg, NA: Exposure was too low to be counted.

Ba/F3 HER2 A775_G776insYVMA cells, sequence (P04626 with tags, fused parts or gaps DUP772-775): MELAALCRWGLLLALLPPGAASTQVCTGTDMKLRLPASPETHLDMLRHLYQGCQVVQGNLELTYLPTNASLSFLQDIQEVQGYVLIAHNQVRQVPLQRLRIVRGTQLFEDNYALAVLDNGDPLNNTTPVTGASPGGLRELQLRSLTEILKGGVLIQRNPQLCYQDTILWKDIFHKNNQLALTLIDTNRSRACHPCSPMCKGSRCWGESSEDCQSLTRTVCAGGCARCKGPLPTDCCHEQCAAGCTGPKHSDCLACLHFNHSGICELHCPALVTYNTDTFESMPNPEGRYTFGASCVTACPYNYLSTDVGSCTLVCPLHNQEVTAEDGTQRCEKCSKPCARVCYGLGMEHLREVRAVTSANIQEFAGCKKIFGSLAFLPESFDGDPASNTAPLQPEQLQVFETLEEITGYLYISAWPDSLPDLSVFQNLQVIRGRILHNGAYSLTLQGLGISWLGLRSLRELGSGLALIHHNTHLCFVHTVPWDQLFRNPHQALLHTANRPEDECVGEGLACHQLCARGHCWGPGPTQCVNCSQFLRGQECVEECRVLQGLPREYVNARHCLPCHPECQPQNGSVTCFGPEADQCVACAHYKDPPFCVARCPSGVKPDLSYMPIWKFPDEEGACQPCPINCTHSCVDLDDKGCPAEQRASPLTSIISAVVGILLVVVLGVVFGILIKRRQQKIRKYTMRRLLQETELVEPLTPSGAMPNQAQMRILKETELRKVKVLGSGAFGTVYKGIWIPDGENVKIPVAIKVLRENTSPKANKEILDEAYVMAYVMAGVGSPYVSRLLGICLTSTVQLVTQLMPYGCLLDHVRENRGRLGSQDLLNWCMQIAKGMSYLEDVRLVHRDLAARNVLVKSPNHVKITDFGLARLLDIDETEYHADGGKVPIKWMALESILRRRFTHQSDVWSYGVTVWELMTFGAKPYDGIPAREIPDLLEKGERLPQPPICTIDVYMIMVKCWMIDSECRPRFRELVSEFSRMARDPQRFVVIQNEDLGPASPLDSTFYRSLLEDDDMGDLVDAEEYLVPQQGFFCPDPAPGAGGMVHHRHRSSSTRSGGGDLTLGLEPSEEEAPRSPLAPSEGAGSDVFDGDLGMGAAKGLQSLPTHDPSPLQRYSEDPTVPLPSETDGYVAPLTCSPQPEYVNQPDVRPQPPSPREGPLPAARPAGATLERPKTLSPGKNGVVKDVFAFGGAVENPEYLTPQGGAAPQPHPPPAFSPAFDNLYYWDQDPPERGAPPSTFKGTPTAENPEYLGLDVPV
EGFR^WT kinase, sequence (P00533 25-1210): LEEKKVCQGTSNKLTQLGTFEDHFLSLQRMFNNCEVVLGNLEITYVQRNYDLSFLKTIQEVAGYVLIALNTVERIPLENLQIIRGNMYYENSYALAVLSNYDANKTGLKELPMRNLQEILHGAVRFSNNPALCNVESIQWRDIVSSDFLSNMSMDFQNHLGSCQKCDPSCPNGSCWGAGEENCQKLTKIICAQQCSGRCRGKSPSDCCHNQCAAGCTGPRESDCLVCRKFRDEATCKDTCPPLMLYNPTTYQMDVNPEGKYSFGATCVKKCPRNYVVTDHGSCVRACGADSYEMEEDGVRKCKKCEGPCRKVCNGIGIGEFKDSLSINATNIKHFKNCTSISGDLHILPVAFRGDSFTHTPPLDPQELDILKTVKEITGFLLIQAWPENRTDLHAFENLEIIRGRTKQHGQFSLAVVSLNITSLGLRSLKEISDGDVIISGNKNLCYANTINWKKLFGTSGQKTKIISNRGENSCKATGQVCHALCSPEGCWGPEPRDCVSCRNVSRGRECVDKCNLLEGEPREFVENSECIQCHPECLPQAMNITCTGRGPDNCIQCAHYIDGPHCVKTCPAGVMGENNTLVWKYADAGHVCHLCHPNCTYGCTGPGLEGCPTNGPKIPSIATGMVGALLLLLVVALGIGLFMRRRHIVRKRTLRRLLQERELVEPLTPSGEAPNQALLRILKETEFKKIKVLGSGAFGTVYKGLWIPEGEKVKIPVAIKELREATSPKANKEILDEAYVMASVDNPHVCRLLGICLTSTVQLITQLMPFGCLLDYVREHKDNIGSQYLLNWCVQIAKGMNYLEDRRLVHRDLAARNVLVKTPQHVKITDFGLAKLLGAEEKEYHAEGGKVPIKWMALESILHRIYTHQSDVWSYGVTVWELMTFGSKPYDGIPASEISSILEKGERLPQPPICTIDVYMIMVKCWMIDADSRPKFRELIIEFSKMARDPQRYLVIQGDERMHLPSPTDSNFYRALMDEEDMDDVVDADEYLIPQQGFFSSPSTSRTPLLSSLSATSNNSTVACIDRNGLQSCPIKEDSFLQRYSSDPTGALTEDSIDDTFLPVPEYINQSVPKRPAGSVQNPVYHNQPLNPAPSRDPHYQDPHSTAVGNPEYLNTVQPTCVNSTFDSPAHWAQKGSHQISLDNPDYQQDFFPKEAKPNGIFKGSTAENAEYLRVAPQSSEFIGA
T1 sequence (P04626 23-1255): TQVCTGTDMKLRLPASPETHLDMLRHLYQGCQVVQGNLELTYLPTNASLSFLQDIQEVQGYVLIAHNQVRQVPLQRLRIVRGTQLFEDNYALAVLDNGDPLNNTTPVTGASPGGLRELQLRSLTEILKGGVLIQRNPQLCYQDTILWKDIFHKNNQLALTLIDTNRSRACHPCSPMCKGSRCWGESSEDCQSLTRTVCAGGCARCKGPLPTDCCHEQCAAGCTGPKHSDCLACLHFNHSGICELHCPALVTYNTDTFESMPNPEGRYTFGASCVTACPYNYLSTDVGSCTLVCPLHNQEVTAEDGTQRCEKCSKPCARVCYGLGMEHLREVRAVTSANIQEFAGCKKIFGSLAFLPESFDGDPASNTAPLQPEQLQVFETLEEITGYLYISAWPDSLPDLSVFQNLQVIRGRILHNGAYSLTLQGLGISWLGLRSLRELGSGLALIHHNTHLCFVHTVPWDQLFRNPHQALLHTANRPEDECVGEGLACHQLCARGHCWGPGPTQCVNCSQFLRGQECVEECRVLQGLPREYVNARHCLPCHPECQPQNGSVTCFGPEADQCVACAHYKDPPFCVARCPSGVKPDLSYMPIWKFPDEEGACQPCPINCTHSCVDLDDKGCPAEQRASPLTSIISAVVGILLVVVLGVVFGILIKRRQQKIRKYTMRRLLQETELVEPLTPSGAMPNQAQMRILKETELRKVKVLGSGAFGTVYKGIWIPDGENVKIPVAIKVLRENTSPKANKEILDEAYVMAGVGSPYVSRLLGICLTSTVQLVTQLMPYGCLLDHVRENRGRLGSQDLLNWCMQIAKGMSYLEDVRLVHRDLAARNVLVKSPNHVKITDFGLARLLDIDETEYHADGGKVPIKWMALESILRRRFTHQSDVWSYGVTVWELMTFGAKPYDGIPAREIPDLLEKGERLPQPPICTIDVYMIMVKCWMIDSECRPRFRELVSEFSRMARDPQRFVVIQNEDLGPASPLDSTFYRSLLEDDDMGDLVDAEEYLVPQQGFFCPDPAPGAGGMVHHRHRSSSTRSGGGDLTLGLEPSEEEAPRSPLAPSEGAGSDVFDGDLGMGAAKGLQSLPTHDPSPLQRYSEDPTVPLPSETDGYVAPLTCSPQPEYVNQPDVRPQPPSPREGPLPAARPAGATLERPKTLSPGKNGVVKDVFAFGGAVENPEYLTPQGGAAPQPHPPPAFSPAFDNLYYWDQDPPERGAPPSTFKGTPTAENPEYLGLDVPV

On to `CN1CCC[C@H]1/C=C/C(=O)Nc1ccc2ncnc(Nc3ccc(OCc4ccccn4)c(Cl)c3)c2c1` [Control compound 2, reference compound], for which, in series [1] (IV 3 mg/kg), the Cl_obs is recorded as 84.3 ± 5.1 mL/min/kg, the AUC(0-inf) worked out at 595 ± 37 ng·h/mL, the AUC(0-t) was 565 ± 40 ng·h/mL and the Vd is 47.5 ± 7.5 L/kg. This molecule showed a half-life in series [1] (IV 3 mg/kg) of 6.5 ± 0.78 h. Besides, the bioavailability in series [1] (setting [7]) came out at 0.992%. In series [1] (setting [8]), the AUC(0-inf) was determined as 23.8 ng·h/mL, the AUC(0-t) worked out at 18.7 ng·h/mL, the peak level (Cmax) was 6.72 ng/mL and the Tmax worked out at 0.25 h. In series [1] (setting [8]), this molecule had a half-life of 2.39 h. Further, in series [1] (administrated orally), the “oral absorption (in words)” value was “hardly absorbed”. Besides, the concentration at 2 h in series [2] (in vivo, whole blood, read-out: Blood drug concentration) amounted to 1.14 ng/mL.

Consider `CN1CCC[C@@H]1/C=C/C(=O)Nc1ccc2ncnc(Nc3ccc(OCc4ccccn4)c(Cl)c3)c2c1OCC(F)F` [Example 11, (R,E)-N-(4-((3-chloro-4-(pyridin-2-ylmethoxy)phenyl)amino)-5-(2,2-difluoroethoxy)quinazolin-6-yl)-3-(1-methylpyrrolidin-2-yl)acrylamide], for which the IC50 in series [3] and in series [4] was under 10 nM throughout. The GI50 in series [5] was in the range of 1 to 5 nM. The “T/C (%)” value in series [6] (QD×15, PO, day 15) worked out at 5.71%.

Turning to `CCCOc1c(NC(=O)/C=C/[C@H]2CCCN2C)ccc2ncnc(Nc3ccc(OCc4ccccn4)c(Cl)c3)c12` [Example 13, (R,E)-N-(4-((3-chloro-4-(pyridin-2-ylmethoxy)phenyl)amino)-5-propoxyquinazolin-6-yl)-3-(1-methylpyrrolidin-2-yl)acrylamide], in series [3], the IC50 is under 10 nM. In series [1] (IV 3 mg/kg), the Cl_obs worked out at 52.3 ± 5.7 mL/min/kg, the AUC(0-inf) is 964 ± 104 ng·h/mL, the AUC(0-t) amounted to 953 ± 105 ng·h/mL and the Vd stood at 18.7 ± 2.9 L/kg. In series [1] (IV 3 mg/kg), this molecule had a half-life of 4.12 ± 0.22 h. For the same molecule, the bioavailability in series [1] (setting [7]) stood at 23.3 ± 7.4%. In addition, in series [1] (setting [8]), the AUC(0-inf) stood at 750 ± 238 ng·h/mL, the AUC(0-t) amounted to 719 ± 233 ng·h/mL, the Cmax came out at 53.7 ± 12.4 ng/mL and the time to peak (Tmax) was 2 h. Further, the half-life in series [1] (setting [8]) is 5.42 ± 0.34 h. Besides, the concentration at 2 h in series [2] (whole blood, read-out: Blood drug concentration) was 273 ng/mL. Further, in series [2] (brain / whole blood, read-out: Brain tissue/blood ratio), the Kp at 2 h amounted to 0.465. The concentration at 2 h in series [2] (brain, NA: Exposure was too low to be counted, read-out: Brain tissue concentration) turned out to be 127 ng/g. This molecule also gave an IC50 in series [4] of under 10 nM. Also, the GI50 in series [5] was in the range of 1 to 5 nM.

On to `[2H]C([2H])([2H])Oc1c(NC(=O)/C=C/[C@H]2CCCN2C)ccc2ncnc(Nc3ccc(OCc4ccccn4)c(Cl)c3)c12` [Example 33, (R,E)-N-(4-((3-chloro-4-(pyridin-2-ylmethoxy)phenyl)amino)-5-(methoxy-d3)quinazolin-6-yl)-3-(1-methylpyrrolidin-2-yl)acrylamide], for which the IC50 in series [3] and in series [4] was under 10 nM in each case. For the same molecule, the GI50 in series [5] was under 1 nM. For the same molecule, the “T/C (%)” value in series [6] (QD×11, PO, day 11) came to 12.4%.
